Reference: publication PMC11864979, “First-in-class ultralong-target-residence-time p38α inhibitors as a mitosis-targeted therapy for colorectal cancer” (Nature Cancer, 2025)
“And” between values parts separate entries of the source, which are not always exact repeats. Identical values can stand only once. Like-named read-outs stand apart in the source and are kept apart here.

Columns and labels:
[1] = target: p38α (Homo sapiens, UniProt Q16539); assay: target residence time (TRT) fluorescence polarization jump-dilution assay; type: binding
Chain of p38α (Q16539 whole entry): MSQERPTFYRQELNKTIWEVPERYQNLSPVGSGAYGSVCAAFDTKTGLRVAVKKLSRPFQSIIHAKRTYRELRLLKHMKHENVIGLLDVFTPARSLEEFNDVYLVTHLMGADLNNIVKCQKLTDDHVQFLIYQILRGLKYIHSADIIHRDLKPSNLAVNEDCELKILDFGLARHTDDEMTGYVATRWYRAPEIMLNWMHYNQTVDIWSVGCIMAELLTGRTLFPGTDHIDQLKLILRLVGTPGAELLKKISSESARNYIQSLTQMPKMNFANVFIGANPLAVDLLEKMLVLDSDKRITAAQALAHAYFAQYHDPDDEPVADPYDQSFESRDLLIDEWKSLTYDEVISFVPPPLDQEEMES
Description: TRTs were determined using a fluorescence polarization assay kit (Transcreener ADP, BellBrook Labs)[29]. […] The formed complex was ‘jump-diluted’ 1:100 (0.5 µl in 49.5 µl) in a 96-half-area-well plate with ATF2 (82 μM), ATP (40 μM) and ADP as the kinase assay detection reagents. The plate was measured every 3 min for 4 h. Fluorescence polarization was detected using the plate reader VictorNivo (PerkinElmer). The data were analyzed using the integrated rate equation in GraphPad Prism version 7.03 software. The residence time was calculated from the reciprocal value of koff.

[2] = test system: PDO6; assay: cell viability in patient-derived CRC organoids PDO6; type: cell-based, human
Description: (§1) For in vitro treatment studies, organoids were mechanically dissociated and digested using TrypLE supplemented with 100 µg ml^−1 DNaseI and 10.5 µM Y-27632 dihydrochloride (Invitrogen) at 37 °C. A total of 1,000–2,000 single cells were plated per well in white 96-well plates (Greiner) in culture medium containing 10% GFR Matrigel or Cultrex BME. The treatment with doxycycline (5 µg ml^−1), pharmacological inhibitors or corresponding volumes of DMSO was started 24 h after plating. Doxycycline was obtained from Sigma-Aldrich. […] Cell viability was measured by means of CellTiter-Glo 3D or CellTiter-Glo 2.0 reagent (Promega) according to the manufacturers’ instructions and the Infinite M Plex reader (Tecan, i-control version 3.9.1 software). Results were normalized to vehicle (DMSO) or to shNC. For cell-doubling assays, the cell number was quantified at the corresponding time points using Guava EasyCyte flow cytometer (Luminex, CytoSoft v5.2 software).

[3] = test system: subcutaneous KAP CRCs; assay: treatment of subcutaneous KAP tumors in wild-type mice; type: in vivo, mouse; settings: for Tumor volume (mm³): Fig. 1j, individual tumors
Description: Subcutaneous injection, splenic seeding or cecum injection of organoids was performed in 8–10-week-old C57BL/6 N/Crl, Rag2^−/− (B6.Cg-Rag2^tm1.1Cgn/J), or CB17 Scid beige (CB17.Cg-Prkdc^scidLyst^bg-J/Crl) mice, obtained from Charles River. The organoids were dissociated into single cells, washed with PBS and injected in a 1:1 mixture of PBS and Matrigel. For murine organoids, 1 × 10^5 cells were injected into the left and right flanks or the spleen capsule and 2 × 10^6 cells were injected into the cecum wall. For human organoids, 4 × 10^5 cells were injected into the flanks of CB17 Scid beige mice. For splenic seeding and cecum injection, mice were anaesthetized using ketamine (100 mg kg^−1, intraperitoneally) and xylazin (10 mg/kg, intraperitoneally) in NaCl and a small laparotomy below the thorax was performed.
No mice were excluded during treatment studies.

[4] = test system: RKO; assay: cell viability in human CRC cell line RKO; type: cell-based; settings: ED Fig. 9g, replicates
Description: (§2) To generate KAP^2D cells, KAP organoids were isolated from Matrigel, fragmented by mechanical dissociation and plated without any extracellular matrix on common cell culture dishes. Phoenix-Eco packaging cells (CRL-3214), HCT-15 (CCL-225), HCT 116 (CCL-247), COLO 205 (CCL-222), LS 174T (CL-188), RKO (CRL-2577) and HT-29 (HTB-38) were obtained from the American Type Culture Collection. The cells were cultured at 37 °C and 7% CO2 with RPMI (KAP^2D cells) or DMEM (other cell lines), supplemented with 10% FBS and penicillin–streptomycin. KAP^2D cells were authenticated using PCR (Kras locus and Trp53 locus). Phoenix-Eco packaging cells and HCT-15, HCT 116, COLO 205, LS 174T, RKO and HT-29 cells were authenticated by the provider using short tandem repeat profiling. No commonly misidentified cell lines were used. Mycoplasma contamination was excluded by a PCR-based analysis.
as §1

[5] = test system: PDO14; assay: cell viability in patient-derived CRC organoids PDO14; type: cell-based, human
Description: as §1

[6] = test system: KAP^2D cells; assay: P-H3^S10 / α-tubulin staining, mitotic phases in KAP^2D cells; type: cell-based, mouse; settings: replicates, experiment and repetition
Description: Immunofluorescence staining on cells and organoids was performed on glass coverslips or tissue culture chambers (Sarstedt). Organoids were plated in medium containing 10% Matrigel or Cultrex BME. The cultures were fixed with 4% paraformaldehyde and stained with specific antibodies and DAPI (Vector Labs). All used antibodies and dilutions are listed in the Nature Portfolio Reporting Summary. For analyzing DNA synthesis, the Molecular Probes Click-iT EdU Alexa Fluor 555 kit was used 24 h after EdU incorporation with DAPI counterstaining. SA-β-Gal staining of cells was performed in cell culture dishes (cells) or tissue culture chambers (organoids) after fixation with 0.5% glutaraldehyde as described above. Human cultures were incubated with X-Gal solution at pH 6.0 for ~4 h. […] Positive cells were quantified using ImageJ version 1.53a software. The analysis of mitosis was performed with an LSM800 Airyscan (Zeiss) microscope (ZEN version 3.0 software). An Airyscan autofilter processing was applied before image analysis.

[7] = test system: COLO 205; assay: cell viability in human CRC cell line COLO 205; type: cell-based; settings: 4 d
Description: as §2, §1

[8] = test system: PDO11; assay: cell viability in patient-derived CRC organoids PDO11; type: cell-based, human
Description: as §1

[9] = test system: KAP organoids; assay: cell viability in KAP organoids (CellTiter-Glo); type: cell-based, mouse; settings: for viability at 1 µM: Mus musculus
Description: as §1

## O=C(NCCN1CCOCC1)c1ccc2c(c1)C(=O)c1ccc(Nc3ccc(F)c(NC(=O)c4ccccc4)c3)cc1CC2 [Compound 1639]
[1]; Fig. 2e, replicates
  TRT: 191.2 s and 188.8 s and 173.0 s
[1]; reciprocal of koff
  TRT: 184 s
[2]; Homo sapiens, 96 h, PDO6, 1 µM, 4 days, read-out: Cell viability (%)
  viability at 1 µM: 88.1%
[2]; PDO6, 0.5 µM, 4 d, 0.5 µM
  Cell viability (%): 89.33% and 120.75% and 95.55%
[2]; PDO6, 1 µM, 4 days, 1 µM
  Cell viability (%): 103.21% and 96.02%
[3]; 0 d of treatment, single tumors, Fig. 3k
  Tumor volume: 56.0 mm³ and 75.0 mm³ and 48.0 mm³ and 80.0 mm³ and 62.5 mm³ and 40.0 mm³ and 64.0 mm³
[3]; 20 mg kg^−1 daily, oral gavage
  subcutaneous KAP tumor development (in words): decelerated CRC development
[3]; day 0 of treatment
  Tumor volume (mm³): 56.0 mm³ (2×) and 75.0 mm³ and 48.0 mm³ (3×) and 80.0 mm³ and 62.5 mm³ and 40.0 mm³ and 64.0 mm³
[3]; day 2 of treatment
  Tumor volume (mm³): 75.0 mm³ (2×) and 87.5 mm³ and 62.5 mm³ and 125.0 mm³ and 56.0 mm³ (2×) and 72.0 mm³ and 48.0 mm³ and 64.0 mm³
[3]; day 4 of treatment
  Tumor volume (mm³): 126.0 mm³ (2×) and 64.0 mm³ and 125.0 mm³ and 72.0 mm³ and 75.0 mm³ and 62.5 mm³ (2×) and 80.0 mm³ and 100.0 mm³
[3]; day 6 of treatment
  Tumor volume (mm³): 144.0 mm³ (2×) and 75.0 mm³ (2×) and 112.5 mm³ and 80.0 mm³ and 62.5 mm³ and 56.0 mm³ and 87.5 mm³ and 126.0 mm³
[3]; day 8 of treatment
  Tumor volume (mm³): 144.0 mm³ (2×) and 162.0 mm³ and 87.5 mm³ (2×) and 112.5 mm³ and 75.0 mm³ (3×) and 100.0 mm³
[3]; day 10 of treatment
  Tumor volume (mm³): 162.0 mm³ and 180.0 mm³ and 87.5 mm³ (4×) and 108.0 mm³ (2×) and 75.0 mm³ and 171.5 mm³
[3]; day 12 of treatment
  Tumor volume (mm³): 180.0 mm³ (2×) and 220.5 mm³ and 112.5 mm³ (3×) and 100.0 mm³ and 108.0 mm³ and 64.0 mm³ and 126.0 mm³
[4]; 0.0137 µM, Repetition
  RKO Cell viability (%): 124.75% and 148.62% and 118.75%
[4]; 0.0137 µM, first experiment
  RKO Cell viability (%): 98.53% and 90.98%
[4]; 0.0412 µM, Repetition
  RKO Cell viability (%): 93.50% and 149.21% and 112.61%
[4]; 0.0412 µM, first experiment
  RKO Cell viability (%): 86.59% and 83.94%
[4]; 0.1235 µM, Repetition
  RKO Cell viability (%): 125.44% and 110.57%
[4]; 0.1235 µM, first experiment
  RKO Cell viability (%): 85.12% and 86.17%
[4]; 0.3704 µM, Repetition
  RKO Cell viability (%): 111.28% and 89.40%
[4]; 0.3704 µM, first experiment
  RKO Cell viability (%): 77.62% and 74.11%
[4]; 1.1111 µM, Repetition
  RKO Cell viability (%): 109.66% and 139.17% and 117.64%
[4]; 1.1111 µM, first experiment
  RKO Cell viability (%): 95.27% and 88.88%
[4]; 3.3333 µM, Repetition
  RKO Cell viability (%): 74.32% and 93.61% and 73.54%
[4]; 3.3333 µM, first experiment
  RKO Cell viability (%): 74.12% and 74.43%
[4]; 10.0000 µM, Repetition
  RKO Cell viability (%): 42.39% and 44.96%
[4]; 10.0000 µM, first experiment
  RKO Cell viability (%): 30.57% and 37.00%
[4]; Homo sapiens, RKO, 0.0137 µM, first experiment, read-out: RKO Cell viability (%)
  viability at 0.0137 µM: 96.7%
[4]; Homo sapiens, RKO, 0.0412 µM, first experiment, read-out: RKO Cell viability (%)
  viability at 0.0412 µM: 88.2%
[4]; Homo sapiens, RKO, 0.1235 µM, Repetition, read-out: RKO Cell viability (%)
  viability at 0.1235 µM: 111%
[4]; Homo sapiens, RKO, 0.1235 µM, first experiment, read-out: RKO Cell viability (%)
  viability at 0.1235 µM: 82.2%
[4]; Homo sapiens, RKO, 0.3704 µM, first experiment, read-out: RKO Cell viability (%)
  viability at 0.3704 µM: 86%
[4]; Homo sapiens, RKO, 1.1111 µM, first experiment, read-out: RKO Cell viability (%)
  viability at 1.1111 µM: 85.9%
[4]; Homo sapiens, RKO, 3.3333 µM, first experiment, read-out: RKO Cell viability (%)
  viability at 3.3333 µM: 75%
[4]; Homo sapiens, RKO, 10.0000 µM, Repetition, read-out: RKO Cell viability (%)
  viability at 10 µM: 43.1%
[4]; Homo sapiens, RKO, 10.0000 µM, first experiment, read-out: RKO Cell viability (%)
  viability at 10 µM: 31.2%
[5]; Homo sapiens, 96 h, PDO14, 0.5 µM, 4 d, read-out: Cell viability (%)
  viability at 0.5 µM: 101%
[5]; Homo sapiens, 96 h, PDO14, 1 µM, 4 days, read-out: Cell viability (%)
  viability at 1 µM: 105%
[5]; PDO14, 0.5 µM, 4 d, 0.5 µM
  Cell viability (%): 102.33% and 109.28%
[5]; PDO14, 1 µM, 4 days, 1 µM
  Cell viability (%): 95.42% and 93.44%
[6]; Fig. 4f
  Anaphase, % (of fully P-H3S10+ cells): 14.94% and 12.77% and 11.59% and 15.15% and 10.11% and 8.57%
  Metaphase, % (of fully P-H3S10+ cells): 17.24% and 21.28% and 8.70% and 19.70% and 24.72% and 20.00%
  Multipolar mitosis, % (of fully P-H3S10+ cells): 9.20% and 12.77% and 8.70% and 9.09% and 10.11% and 8.57%
  Telophase, % (of fully P-H3S10+ cells): 12.64% and 9.57% and 7.25% and 16.67% and 10.11% and 14.29%
[6]; Fig. 4d
  P-H3S10+ cells, fully positive: 5.80% and 5.96% and 4.15% and 4.12% and 5.10% and 3.55%
  P-H3S10+ cells, partially positive: 8.66% and 7.86% and 7.71% and 7.49% and 8.02% and 8.52%
[7]; 0.0137 µM
  COLO 205 Cell viability (%): 96.89% and 92.36% and 102.13% and 110.53% and 105.25%
[7]; 0.0412 µM
  COLO 205 Cell viability (%): 99.77% and 107.60% and 109.36% and 77.71% and 88.84% and 87.27%
[7]; 0.1235 µM
  COLO 205 Cell viability (%): 93.71% and 107.24% and 99.74% and 85.52% and 87.44% and 87.93%
[7]; 0.3704 µM
  COLO 205 Cell viability (%): 100.71% and 94.45% and 83.28% and 88.21% and 85.79%
[7]; 1.1111 µM
  COLO 205 Cell viability (%): 89.26% and 96.25% and 98.03% and 68.45% and 75.66% and 76.80%
[7]; Homo sapiens, COLO 205, 96 h, 0.0137 µM
  viability at 0.0137 µM: 98.5%
[7]; Homo sapiens, COLO 205, 96 h, 0.3704 µM
  viability at 0.3704 µM: 92.5%
[8]; PDO11, 0.5 µM, 4 d, 0.5 µM
  Cell viability (%): 109.25% and 122.99% and 99.10%
[8]; PDO11, 1 µM, 4 days, 1 µM
  Cell viability (%): 102.62% and 119.73% and 93.65%
[9]; Fig. 1g, 0.5 µM, replicates
  Cell viability (%): 93.61% and 119.78% and 82.99%
[9]; Fig. 1g, 1 µM, replicates
  Cell viability (%): 54.56% and 39.62%
[9]; Fig. 2b, compound screen, replicates
  Cell viability (%): 45.26% and 35.57% and 35.59%
[9]; Fig. 2f, 0,5 µM, replicates, 5 µM
  Cell viability (%): 109.96% and 85.33% and 68.50%
[9]; Fig. 2f, 0,25 µM, replicates, 25 µM
  Cell viability (%): 115.00% and 101.97% and 82.44%
[9]; Fig. 2f, 1 µM, replicates
  Cell viability (%): 55.27% and 54.06%
[9]; Fig. 1g, 1 µM, replicates, read-out: Cell viability (%)
  viability at 1 µM: 51.8%
[9]; Fig. 2f, 1 µM, replicates, read-out: Cell viability (%)
  viability at 1 µM: 72.9%
[9]; drug screen in KAP organoids, 1 µM concentration, n = 3, mean, read-out: Cell viability (% of DMSO)
  viability at 1 µM: 38.8%
[9]; viability assay
  induction of cell death in KAP organoids (in words): moderate but significant induction of cell death
